One data set concerns T. b. brucei GVR35. Further details: method as in PMID 19620327. To be noted: cited from earlier work.
The nature of data set [1]: Tolerability of dose regimens in infected vervet monkeys. It counts as in vivo, vervet monkey. The settings on record: all IM DB829 and oral DB868 dose regimens. The text has this: Parasitaemia post-infection was monitored daily, using ear-prick capillary blood, through the completion of DB868 and DB829 treatment. Following the last drug dose (LDD), blood and CSF samples were examined for trypanosomes at 1, 4, 7, and 14 days to determine the end of treatment (EoT) response; monkeys which were positive for trypanosomes in either blood or CSF at the end of this 14-day period were classified as treatment failures/not cured while those that were free of trypanosomes were classified as provisionally cured. After the 14-day EoT evaluations, parasitaemia examinations were continued twice weekly to ≥ 300 days post-LDD as described previously. Additionally, physical examinations and haematological assessments were carried out once weekly up to 28 days post-LDD, once every two weeks between 28 and 100 days post-LDD, and monthly thereafter until the end of the study as described previously. At 300 days post-LDD, monkeys were considered cured if they remained normal clinically and parasite-free in the blood and CSF. Pharmacokinetic outcomes were monitored for a minimum of 60 days post-LDD as described previously. To facilitate the collection of blood and CSF for these assessments, the monkeys were anaesthetised with an IM injection of ketamine HCl (10–15 mg/kg) and diazepam (0.5 mg/kg). […]

Structures are written as SMILES.

For the compound `N=C(N)c1ccc(-c2ccc(-c3ccc(C(=N)N)cn3)o2)nc1` [DB829, 2,5-bis(5-amidino-2-pyridyl)furan], in the data set with T. b. brucei GVR35, the “efficacy in the murine model of second stage HAT” value is recorded as “fully curative”. The “tolerability of dose regimens” value in data set [1] is “well tolerated”.

Source of the values: publication PMC4318582, “Chemotherapy of Second Stage Human African Trypanosomiasis: Comparison between the Parenteral Diamidine DB829 and Its Oral Prodrug DB868 in Vervet Monkeys” (PLoS Neglected Tropical Diseases, 2015).
